Results published in a melting point compilation (Tetko et al.; mined from patent text by program, amines drawn as free bases though some values may be those of a salt).

| Structure (SMILES) | melting point [°C] |
| --- | --- |
| OC(c1nccs1)(c1nccs1)C(F)(F)F | 113 to 115 |
| N#Cc1cc(C(=O)O)n(/C=C/c2ccccc2)c1 | 166 to 168 |
| CN1CC=C(c2c[nH]c3ccc(Oc4ccccc4)cc23)CC1 | 135 to 137 |
| Nc1c(Cl)nc2ccccc2c1NCc1ccccn1 | 98 to 102 |
| CCCC1(C)CC(C)c2cc(C(C)=O)c(O)c(C)c2O1 (stereo unspecified) | 73 |
| NNC(=S)Nc1ccc2ccccc2c1 | 174 to 176 |
| NC1=NC(c2ccc(OC(F)F)cc2)(c2cccc(-c3cccnc3F)c2)C2=NCCCN12 (stereo unspecified) | 104 to 114 |
| COC(=Cc1ncn(C(c2ccccc2)(c2ccccc2)c2ccccc2)c1C)C(=O)c1cccc2ccccc12 | 220 to 222 |
| OC1(c2ccc(Cl)cc2)CCN(CCCOc2ccc(F)cc2)CC1 | 134 to 135 |
| Cc1ccc(S(=O)(=O)C2=CC3C=CC2N3C(=O)OC(C)(C)C)cc1 (stereo unspecified) | 94 to 99 |
| CC(C)c1ccc(C2(NC(=O)c3ccccc3)C(=O)c3ccccc3C2=O)c(OC(=O)c2ccccc2)c1 | 138 to 140 |
| CC(C)n1cc(-c2c(-c3ccc(F)cc3)nn3ccncc23)ccc1=O | 214 to 215 |
| CCOC(=O)CCCC(=O)c1ccc(Br)s1 | 53 to 54 |
| CC(C)(C)c1ccc(CCC(O)CC2CCCCC2)cc1NC(=O)NCC1c2ccccc2Oc2ccccc21 (stereo unspecified) | 156 to 157 |
| CC1(C)C(C=C2CCCC2)C1C(=O)OC(C#N)c1ccc(F)c(Oc2ccccc2)c1 (stereo unspecified) | 81 |
| Cc1cn(-c2ccc(C(=N)N)cc2)c(=O)n1-c1ccc(CCC(=O)OC(C)C)cc1 | 246 to 249 |
| Cn1c(C(F)(F)F)cc(=O)n(-c2nc(Cl)c(O)cc2F)c1=O | 189 to 192 |
| CCOP(=O)(Cc1cccc(-c2nc(=O)c3ccccc3s2)n1)OCC | 116 |
| COC(=O)C1=CCC2CC(=O)C12 (stereo unspecified) | 58 to 61 |
| N#CC=CNCC(=O)c1cccc(Cl)c1Cl | 125 to 127 |

| Structure (SMILES) | melting point [°C] |
| --- | --- |
| CC(Cc1c[nH]c2ccccc12)(NC(=O)OC1C2CC3CC(C2)CC1C3)C(=O)NCCc1cccc(NC(=O)CCC(=O)O)c1 (stereo unspecified) | 78 to 82 |
| CCCCc1nc(SCCF)c(C(=O)O)n1Cc1ccc(-c2ccccc2C(=O)O)cc1 | 185 to 186 |
| CC/C=C(\c1ccccc1N1CCCCC1)C(C(N)=O)c1ccc(C(=O)O)cc1 (stereo unspecified) | 174 to 175 |
| CC(C)Cn1c(CNC(=O)OC(C)(C)C)c(-c2cccs2)c2cc(C(N)=O)ccc2c1=O | 248 to 250 |
| COC(=O)c1cccc(-c2noc(C)n2)c1 | 81 |
| CC(C)(C)c1ccc(C(=O)Nc2cn3nc(-c4cnn(CCO)c4)ccc3n2)cc1 | 226 to 229 |
| CCOC(=O)c1cn(CC)c2ncnn2c1=O | 129 to 131 |
| CCc1cc(N)ccc1N1C(=O)c2ccc(Cl)cc2C1=O | 118 to 120 |
| c1ccc2cc(-c3nc(COc4ccc(CCCn5ccnc5)cc4)co3)ccc2c1 | 131 to 132 |
| Cc1ccccc1NC(C#N)c1c(Cl)cccc1Cl (stereo unspecified) | 108 |
| COc1ccc(S(C)=O)cc1C(=O)O (stereo unspecified) | 114 to 116 |
| CCS(=O)(=O)c1cc(C(=O)NCC2CCCN2C)c(OC)cc1N (stereo unspecified) | 126 to 127 |
| CC(=O)N(C(C)=O)c1csc(Br)n1 | 63 to 65 |
| COc1ccc(-c2ccc3c(c2)CCC3=O)c2c1OCCO2 | 168 |
| C=CCN(CC)c1nc(N2CCc3ccccc3CC2)c(C#N)c(=O)n1CC=C | 138 to 140 |
| COC(=O)Cc1c(O)nc(C)nc1O | > 200 |
| CCOc1cc2c(Nc3cc(OC)c(Cl)cc3Cl)c(C#N)cnc2cc1OCCCC1CCN(C)CC1 | 148 to 151 |
| CC(C)OC(=O)Cn1c(=O)n(C)c(=O)n(-c2cc(N3C(=O)c4cccc(F)c4C3=O)c(F)cc2Cl)c1=O | 119 to 125 |
| COC(=O)c1ccc2nc3c(c(C)nn3-c3ccccn3)c(Cl)c2c1 | 199 to 200 |
| CC(C)NC(=O)NCC(=O)O | 178 |

The remaining lines, values ahead:

| melting point [°C] | Structure (SMILES) |
| --- | --- |
| 122 | COC(=O)c1cc2cc(C(=O)c3cccc(C(C)C(=O)OC)c3)sc2s1 (stereo unspecified) |
| 104 to 105 | COC(=O)Cc1ccc(C(=O)c2ccc(OC)cc2)n1C |
| 74.5 to 76 | O=[N+]([O-])c1c(OS(=O)(=O)C(F)(F)F)nc2ccccc2c1OS(=O)(=O)C(F)(F)F |
| 219 to 220 | CC(C)(C)OC(=O)Nn1c(=O)cc2n(C3CC3)c3cc(N4CCN(C(=O)OC(C)(C)C)CC4)c(F)cc3n2c1=O |
| 139 to 140 | C=CCNc1nc(NC(C)(C)C)nc2ccc([N+](=O)[O-])cc12 |
| 164 to 169 | CC(C)c1cccc(C(C)C)c1NC(=O)Nc1cccc2ccc(Oc3ccc4nc(COc5ccc(CC6SC(=O)NC6=O)cc5)n(C)c4c3)cc12 (stereo unspecified) |
| 107 to 108 | O=C1CC(c2ccccc2)Cc2occ(C(F)(F)F)c21 (stereo unspecified) |
| 207 to 210 | O=C(Nc1ccc(CO)cc1)C1=Cc2cc(-c3ccccc3)ccc2CC1 |
| 68 to 71 | CCCc1ccc(C=O)n1Cc1ccc(-c2ccccc2-c2nnn[nH]2)cc1 |
| 82 | Cc1cc(-n2ccnc2)c2cccc(OCc3c(Cl)ccc(S(=O)(=O)N4CCC[C@H]4C(=O)NCCc4ccccn4)c3Cl)c2n1 |
| 181 to 186 | O=C(NNc1ccccc1)c1ccc(F)cc1 |
| 100 to 103 | COC(=O)c1ccc(C)cc1N(C)S(C)(=O)=O |
| 262 to 263 | CC(C)(C)c1ccc(-c2ccc3c(C(N)=O)nn(-c4ccc(S(N)(=O)=O)cc4)c3c2)cc1 |
| 106 to 107 | COc1ccc2oc(-c3ccccc3)c(C)c2c1 |
| 218 to 219 | CCN1CCN(c2ccnc3sc(C(N)=O)c(N)c23)CC1 |
| 118 to 124 | O=C(OCc1ccccc1C(=O)O)c1ccccc1 |

| melting point [°C] | Structure (SMILES) |
| --- | --- |
| 142 to 144 | O=C1CCc2cc(Cl)ccc2C(=O)CCCN1 |
| 114 to 116 | O=C(CCCl)Nc1ccccc1 |
| 127 to 128 | CCOP(=O)(OCC)c1ccc2cc(I)cc(-c3cccc4ccccc34)c2n1 |
| 44 to 45 | Cc1cncc(C)c1-c1c(C)cc(N=C(c2ccccc2)c2ccccc2)cc1C |
| > 250 | CN1CC(=O)Nc2ccc(F)cc2C1=O |
| 63 to 67 | COC(=O)C(=COC(F)F)c1ccccc1CBr |
| 260 to 262 | Nc1ncnc2c1c(-c1cc(O)cc(F)c1)nn2Cc1oc2ccccc2c(=O)c1-c1ccccc1 |
| 138 to 139 | COc1ccc2c(c1OCC#N)CCC=C2 |
| 225 to 227 | O=C(O)c1ccc(-c2nc(-c3ccccc3C(F)(F)F)cs2)cc1 |
| 157 to 162 | CC1(O)CC(=O)OC(c2ccc(OCc3ccccc3)cc2)C1Br (stereo unspecified) |
| 245 to 249 | Cc1ccc([N+](=O)[O-])cc1Nc1nnn[nH]1 |
| 122 to 123 | COc1ccc(-n2cc(CCCO)c(C(C)C)n2)nn1 |
| 130 to 131 | CCOC(=O)Cc1ccc(NC(=O)C(CCc2ccccc2)NS(=O)(=O)c2ccc(Br)cc2)cc1 (racemic) |
| 213 | Cc1cc(-c2cnn3c(C(F)F)cc(-c4ccc(C(F)(F)F)cc4)nc23)ccn1 |
| 144 to 146 | CCNC(=O)Nc1ccc(C(O)(C(F)(F)F)C(F)(F)F)cc1C(=O)OCC |
